{
  "source": "patent US12441757B2",
  "about": "“Platform for screening NAD+ binding proteins in a cellular context” (OREGON HEALTH & SCIENCE UNIVERSITY, priority 2020, dated 2025)",
  "molecular_target": "T1, PARP-10 (Homo sapiens, UniProt Q53GL7)",
  "T1 construct": "Full length His6-PARP-1 and His6-SUMO-PARP-10 proteins we expressed and purified; His6 (N); SUMO (N); made in house",
  "T1 sequence (Q53GL7 1-1025)": "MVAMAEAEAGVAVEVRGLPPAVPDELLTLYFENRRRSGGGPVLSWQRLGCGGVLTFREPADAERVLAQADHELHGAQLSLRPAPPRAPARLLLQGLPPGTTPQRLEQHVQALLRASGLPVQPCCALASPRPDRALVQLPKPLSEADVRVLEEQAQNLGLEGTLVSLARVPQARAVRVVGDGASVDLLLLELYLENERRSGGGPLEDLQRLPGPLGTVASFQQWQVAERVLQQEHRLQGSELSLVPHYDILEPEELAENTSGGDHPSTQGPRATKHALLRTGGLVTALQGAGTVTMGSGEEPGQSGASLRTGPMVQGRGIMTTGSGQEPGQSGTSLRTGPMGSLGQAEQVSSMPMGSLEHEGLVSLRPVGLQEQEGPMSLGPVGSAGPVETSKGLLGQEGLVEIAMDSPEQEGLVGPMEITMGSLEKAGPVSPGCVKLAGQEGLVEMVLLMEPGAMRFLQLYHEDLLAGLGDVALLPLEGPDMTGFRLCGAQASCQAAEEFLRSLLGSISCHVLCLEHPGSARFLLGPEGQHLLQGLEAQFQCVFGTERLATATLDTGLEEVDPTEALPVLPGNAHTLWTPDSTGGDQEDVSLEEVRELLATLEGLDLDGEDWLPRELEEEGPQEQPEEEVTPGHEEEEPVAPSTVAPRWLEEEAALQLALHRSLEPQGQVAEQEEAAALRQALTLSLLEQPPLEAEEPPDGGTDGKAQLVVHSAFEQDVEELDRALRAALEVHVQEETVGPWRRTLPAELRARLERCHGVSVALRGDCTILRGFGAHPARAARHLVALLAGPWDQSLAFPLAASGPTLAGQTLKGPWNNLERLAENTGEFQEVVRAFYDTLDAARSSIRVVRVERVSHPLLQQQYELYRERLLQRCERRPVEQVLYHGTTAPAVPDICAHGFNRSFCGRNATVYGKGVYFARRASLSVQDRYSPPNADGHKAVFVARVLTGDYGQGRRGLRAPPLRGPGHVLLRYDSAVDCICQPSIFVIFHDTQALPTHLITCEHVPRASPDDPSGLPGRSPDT",
  "assay": "In vitro PARP-10 auto-MARylation activity assay",
  "assay_type": "biochemical",
  "experimental": "FIG. 5. A clickable NAD^+ PAL probe (2-ad-BAD) inhibits PARP-1 and PARP-10 activity in concentration response. (FIG. 5A) 50 nM of recombinant His6-PARP-1 was incubated with 10 μg/mL activated DNA in 100 mM NaCl, 50 mM HEPES [pH 7.4], 4 mM MgCl2, 0.2 mM TCEP for 10 min, then treated with indicated competitor (BAD or the PARP-1 inhibitor NMS-P118) for additional 10 min. 50 μM NAD^+ was then added to initiate auto-PARylation of PARP-1. After 10 min, the reaction was quenched by addition of 4× Laemmli sample buffer and boiling at 95° C. for 5 min. Protein samples were separated by SDS-PAGE, transferred onto nitrocellulose and probed with indicated antibodies. (FIG. 5B) Experiments were performed essentially as in (5A) with the exception that damaged DNA was omitted and the PARP-10 inhibitor ITK6 was used instead of NMS-P118. (FIG. 5C) Densitometry analyses of (5A) and (5B) comparing inhibitory effect of BAD on PARP-1 and PARP-10 auto-ADP-ribosylation. Data are mean±SEM of 3 independent experiments. […]\nSamples were run on 10% or 12% acrylamide gels for ˜1 h at 180 V in Mini-PROTEAN Tetra cell (Biorad). […] Band intensities we quantified with ImageJ.",
  "data": [
    {"smiles": "NC(=O)c1cccc([C@@H]2O[C@H](COP(=O)(O)OP(=O)(O)OC[C@H]3O[C@@H](n4cnc5c(N)ncnc54)[C@H](O)[C@@H]3O)[C@@H](O)[C@H]2O)c1", "note": "[BAD, benzamide adenine dinucleotide]", "values": [
      {"measurement": "relative potency against PARP-10 compared to PARP-1", "setting": "auto-ADP-ribosylation assays, densitometry", "result": "the opposite was true"},
      {"measurement": "inhibition of PARP-10 auto-MARylation", "setting": "dose response, 50 μM NAD^+, anti-ADPr immunoblot", "result": "inhibited"}
    ]}
  ]
}
